The values below come from patent US10961238B2, “Modulators of hedgehog (Hh) signaling pathway” (E-THERAPEUTICS PLC, priority 2016, dated 2021).

Structures are written as SMILES. pIC50: −log10 of the molar value.

By pIC50 is commonly meant −log10 of the IC50, conventionally taken in molar units.

The assay concerns C3H10T1/2 cells. Kind of assay: C3H assay: differentiation of C3H10T1/2 cells by mSHH, measurement of alkaline phosphatase. Format: cell-based, mouse. To be noted: Mus musculus, C3H 10T1/2; C3H10T1/2 cells stimulated with mSHH for 72 hours; alkaline phosphatase activity; read-out: IC50 Ranges.
Consider `CN(C)CC1(CN2CC(S(=O)(=O)N3CCC(c4c[nH]c5ncccc45)CC3)C2)CCCC1` [Compound 247, N,N-dimethyl-1-[1-[[3-[4-(1H-pyrrolo[2,3-b]pyridin-3-yl)piperidin-1-yl]sulfonylaze-tidin-1-yl]methyl]cyclopentyl] methanamine], for which the pIC50 was 5.00 to 6.00.

Turning to `CC(C)[C@H](CO)NC(=O)N1CC(S(=O)(=O)N2CCC(c3c[nH]c4ncccc34)CC2)C1` [Compound 251, N-[(2R)-1-hydroxy-3-methylbutan-2-yl]-3-[4-(1H-pyrrolo[2,3-b]pyridin-3-yl)piperidin-1-yl]sulfonylaze-tidine-1-carboxamide], the pIC50 is 7.00 to 8.00.

As to `COc1ccnc(N2CC(S(=O)(=O)N3CCC(c4c[nH]c5ncccc45)CC3)C2)c1C#N` [Compound 252, 4-methoxy-2-[3-[4-(1H-pyrrolo [2,3-b]pyridin-3-yl)piperidin-1-yl]sulfonylaze-tidin-1-yl]pyridine-3-carbonitrile], the pIC50 is 6.00 to 7.00.

In the case of `O=S(=O)(C1CN(c2ncccc2F)C1)N1CCC(c2c[nH]c3ncccc23)CC1` [Compound 253, 3-[1-[1-(3-fluoropyridin-2-yl)azetidin-3-yl]sulfonylpiper-idin-4-yl]-1H-pyrrolo[2,3-b]pyridine], the pIC50 is 7.00 to 8.00.

On to `Cc1cccnc1N1CC(S(=O)(=O)N2CCC(c3c[nH]c4ncccc34)CC2)C1` [Compound 254, 3-[1-[1-(3-methylpyridin-2-yl)azetidin-3-yl]sulfonylpiper-idin-4-yl]-1H-pyrrolo[2,3-b]pyridine], for which the pIC50 was 7.00 to 8.00.

As for `CC(C)(O)c1cccnc1N1CC(S(=O)(=O)N2CCC(c3c[nH]c4ncccc34)CC2)C1` [Compound 255, 2-[2-[3-[4-(1H-pyrrolo[2,3-b]pyridin-3-yl)piperidin-1-yl]sulfonylaze-tidin-1-yl]pyridin-3-yl]propan-2-ol], the pIC50 is 7.00 to 8.00.

Turning to `Cc1ccnc(N2CC(S(=O)(=O)N3CCC(c4c[nH]c5ncccc45)CC3)C2)c1` [Compound 257, 3-[1-[1-(4-methylpyridin-2-yl)azetidin-3-yl]sulfonylpiper-idin-4-yl]-1H-pyrrolo[2,3-b]pyridine], the pIC50 was 7.00 to 8.00.

`N#Cc1ccnc(N2CC(S(=O)(=O)N3CCC(c4ccncc4)CC3)C2)c1` [Compound 258, 2-[3-(4-pyridin-4-ylpiperidin-1-yl)sulfonylaze-tidin-1-yl]pyridine-4-carbonitrile]: the pIC50 was 5.00 to 6.00.

With `O=S(=O)(C1CN(c2ncccc2CO)C1)N1CCC(c2ccncc2)CC1` [Compound 259, [2-[3-(4-pyridin-4-ylpiperidin-1-yl)sulfonylaze-tidin-1-yl]pyridin-3-yl]methanol], the pIC50 was 5.00 to 6.00.

In the case of `CCOC(=O)c1coc(N2CC(S(=O)(=O)N3CCC(c4ccncc4)CC3)C2)n1` [Compound 260, ethyl 2-[3-(4-pyridin-4-ylpiperidin-1-yl)sulfonylaze-tidin-1-yl]-1,3-oxazole-4-carboxylate], the pIC50 is 5.00 to 6.00.

`NC(=O)c1coc(N2CC(S(=O)(=O)N3CCC(c4ccncc4)CC3)C2)n1` [Compound 261, 2-[3-[[4-(4-pyridyl)-1-piperidyl]sulfonyl]azetidin-1-yl]oxazole-4-carboxamide]: the negative-log IC50 (pIC50) is 5.00 to 6.00.

Turning to `Cc1noc(C)c1NC(=O)N1CC(S(=O)(=O)N2CCC(c3ccncc3)CC2)C1` [Compound 262, N-(3,5-dimethyl-1,2-oxazol-4-yl)-3-(4-pyridin-4-ylpiperidin-1-yl)sulfonylaze-tidine-1-carboxamide], the negative logarithm of the IC50 (pIC50) is 6.00 to 7.00.

Consider `CC[C@@H](C)OC(=O)N1CC(S(=O)(=O)N2CCC(c3ccncc3)CC2)C1` [Compound 263, [(2R)-butan-2-yl]3-(4-pyridin-4-ylpiperidin-1-yl)sulfonylaze-tidine-1-carboxylate], for which the pIC50 was 6.00 to 7.00.

Consider `O=C(OC1CCCCC1)N1CC(S(=O)(=O)N2CCC(c3ccncc3)CC2)C1` [Compound 264, cyclohexyl 3-(4-pyridin-4-ylpiperidin-1-yl)sulfonylaze-tidine-1-carboxylate], for which the pIC50 was 6.00 to 7.00.
